Assay results: patent publication US4914191A, “Anthracycline derivatives having cytostatic activity” (Behringwerke Aktiengesellschaft, priority 1987, dated 1990)
In brackets after ≈: the same amount, converted by molar mass. Counter-ions that a name gives are not always drawn. Like-named read-outs stand apart in the source and are kept apart here.

Key:
[1] = tested on: L1210 mouse leukemia cells; assay: formation of colonies of L1210 leukemia cells in soft agar; type: cell-based; details: for IC50: Mus musculus
Description: The cytostatic activity of the compounds according to the invention was tested using L1210 mouse leukemia cells. This made use of the formation of colonies of L1210 leukemia cells in agar plates. This method is used to detect the effect of the test substances on the growth behavior of the cells over 1 hour or over several generations. With a cell cycle lasting 10-12 hours, this means that about 14 consecutive generations are observed in a test lasting 7 days. In this test, the substances having cytostatic activity according to the invention bring about a reduction in the number of colonies to be observed by comparison with an untreated control sample.
500 leukemia cells per plate were incubated with various concentrations of the test substance at 37° C. for 1 hour. These cells were then washed twice with McCoy5A medium and finally, after addition of 0.3% agar, poured into Petri dishes. Controls were incubated only with fresh medium. In some cases, in place of the incubation for one hour, various concentrations of test substances were mixed with the upper agar layer in order in this way to achieve continuous exposure of the cells throughout the incubation time. After the agar had solidified, the plates were incubated at 37° C. in an incubator for 7 days (5% by vol. CO2, 95% relative humidity). The number of colonies with a diameter of more than 60 μm which had formed was then counted. The results have been given as the number of colonies in treated agar plates as a percentage of the untreated control. The IC50 was determined, as a measure of the activity of the substance, from the dose-effect plot obtained in this way.

[2] = approximative toxicity, intraperitoneal (LD50); details: in vivo, ip
Excerpt: *3xip,q3d: three intraperitoneal administrations with an interval of thre
1xip: one intraperitoneal administration

L1210 leukemia cells = assay: cross-resistance in vitro, MTT assay on sensitive and adriamycin (doxorubicin)-resistant L1210 leukemia cells; type: cell-based, mouse; details: for Degree of cross-resistance to adriamycin / Degree of resistance of the cell: 3d incubation; for Degree of resistance of the cell: IC50 resistant subline relative to IC50 sensitive line
Description: L1210, A 549 or HT 29 in the exponential phase of growth are incubated in a cell density of 5×10^3 cells/ml in RPMI 1640 in a 96-well microtiter plate for 72 hours with various concentrations of the test substance at 37° C., 5% CO2 and 95% relative humidity. Control experiments contain merely growth medium in place of the test substance. Each test substance and the control are determined in quadruplicate. After incubation for 65 hours, 50 μl of MTT solution (2.5 mg/ml in phosphate-buffered saline) are added. In the presence of live cells, MTT is reduced to a dark-red insoluble formazan dyestuff. This reaction is complete after 7 hours (L1210 cells) or after 24 hours (A 549, HT 29 cells), and the supernatant medium is carefully removed by aspiration. The insoluble dyestuff is dissolved by addition of 100 μl of DMSO, and the extinction of the resulting solution at a wavelength of 492 nm is then measured for each well in a Flow 340 CC multiscan photometer.
The ratio of the extinctions of treated and untreated cells yields a dose-effect plot from which the concentration which just kills 50% of the cells (IC50) can be read off. The coefficient of variation for repeat tests is less than 15%.
The cross-resistance between the particular test compound and doxorubicin is determined using the MTT assay (for method, see above) on sensitive and resistant L1210 leukemia cells.
The resistant cell line was established by incubation of a sensitive subline with stepwise increasing concentrations of the reference compound.
The IC50 of the test compound on the resistant subline relative to the IC50 of the sensitive subline yields the degree of resistance both for the test compound (DR(T)) and for the reference compound (DR(R)) in accordance with the formula [formula]
In addition, the degree of cross-resistance (DCR) for the test compound is calculated in accordance with the formula [formula]
In the case where the loss of activity of the test compound on the resistant line related to the sensitive line is greater than that of the reference compound, a degree of cross-resistance of more than 100% is possible.

[3] = L1210, 168 h, read-out: Long-term incubation IC50, continuous exposure, 7 days, L1210 colony formation
[4] = L1210, read-out: 1 h Incubation IC50, 1 h incubation, then 7 days colony formation, L1210
[5] = 1 h incubation, then 7 days colony formation, L1210
[6] = continuous exposure, 7 days, L1210 colony formation
[7] = 168 h, continuous exposure, 7 days, L1210 colony formation, read-out: Long-term incubation IC50
[8] = 1 h incubation, then 7 days colony formation, L1210, read-out: 1 h Incubation IC50
[9] = one intraperitoneal administration, read-out: Approximative toxicity LD50, 1xip

With `CC[C@@]1(O)C[C@H](O[C@H]2C[C@H](N(C)C)[C@H](OC(=O)c3ccc([N+](=O)[O-])cc3)[C@H](C)O2)c2c(O)c3c(c(O)c2[C@H]1O[C@H]1C[C@H](N(C)C)[C@H](OC(=O)c2ccc([N+](=O)[O-])cc2)[C@H](C)O1)C(=O)c1cccc(O)c1C3=O` [Compound 7, 7,10-O-Bis-(4'-O-p-nitrobenzoyl-α-L-rhodosaminyl)-β-rhodomycinone] the IC50 [1, 3] was 2.1 µg/mL (≈ 2.1 µM) and the IC50 [1, 4] was > 10 µg/mL.
In the case of `CC[C@@]1(O)C[C@H](O[C@H]2C[C@H](N(C)C)[C@H](OC(=O)c3ccc(OC)cc3)[C@H](C)O2)c2c(O)c3c(c(O)c2[C@H]1O[C@H]1C[C@H](N(C)C)[C@H](OC(=O)c2ccc(OC)cc2)[C@H](C)O1)C(=O)c1cccc(O)c1C3=O` [Compound 4, HCl adduct of compound 3], the “1 h Incubation IC50” value [1, 5] was > 1 µg/mL and the “Long-term incubation IC50” value [1, 6] was 0.09 µg/mL.
With `CC[C@@]1(O)C[C@H](O[C@H]2C[C@H](N(C)C)[C@H](OC(=O)c3ccccc3)[C@H](C)O2)c2c(O)c3c(c(O)c2[C@H]1O[C@H]1C[C@H](N(C)C)[C@H](OC(=O)c2ccccc2)[C@H](C)O1)C(=O)c1cccc(O)c1C3=O` [Compound 2, HCl adduct of compound 1] the IC50 [1, 7] was 0.095 µg/mL, the IC50 [1, 8] was > 1 µg/mL and the LD50 ([2]; three intraperitoneal administrations with an interval of three days between each, read-out: Approximative toxicity LD50, 3xip, q3d) was > 85 mg/kg.
For `CC[C@@]1(O)C[C@H](O[C@H]2C[C@H](N(C)C)[C@H](OC(=O)c3ccc([N+](=O)[O-])cc3)[C@H](C)O2)c2c(O)c3c(c(O)c2[C@H]1O)C(=O)c1cccc(O)c1C3=O` [Compound 19, 7-O-(4'-O-p-Nitrobenzoyl-α-L-rhodosaminyl)-β-rhodomycinone], the IC50 [1, 3] was 0.03 µg/mL (≈ 0.0433 µM), the IC50 [1, 4] was 0.55 µg/mL (≈ 0.794 µM) and the LD50 [2, 9] was > 50 mg/kg.
With `CC[C@@]1(O)C[C@H](O[C@H]2C[C@H](N(C)C)[C@H](OC(=O)c3ccccc3)[C@H](C)O2)c2c(O)c3c(c(O)c2[C@H]1O[C@H]1C[C@H](N(C)C)[C@H](OC(=O)c2ccccc2)[C@H](C)O1)C(=O)c1cccc(O)c1C3=O` [Compound 1, 7,10-O-Bis-(4'-O-benzoyl-α-L-rhodosaminyl)-β-rhodomycinone] the LD50 [2, 9] was > 100 mg/kg, the “Degree of cross-resistance to adriamycin” value (L1210 leukemia cells) was 0% and the “Degree of resistance of the cell” value (L1210 leukemia cells) was 1.0.
In the case of `CC[C@@]1(O)C[C@H](O[C@H]2C[C@H](N(C)C)[C@H](OC(=O)c3ccc(OC)cc3)[C@H](C)O2)c2c(O)c3c(c(O)c2[C@H]1O[C@H]1C[C@H](N(C)C)[C@H](OC(=O)c2ccc(OC)cc2)[C@H](C)O1)C(=O)c1cccc(O)c1C3=O` [Compound 3, 7,10-O-Bis-(4'-O-p-methoxybenzoyl-α-L-rhodosaminyl)-β-rhodomycinone], the IC50 [1, 3] was 0.115 µg/mL (≈ 0.119 µM), the IC50 [1, 4] was > 1 µg/mL and the LD50 [2, 9] was > 100 mg/kg.
For `CC[C@@]1(O)C[C@H](O[C@H]2C[C@H](N(C)C)[C@H](OC(=O)c3ccc(C#N)cc3)[C@H](C)O2)c2c(O)c3c(c(O)c2[C@H]1O[C@H]1C[C@H](N(C)C)[C@H](OC(=O)c2ccc(C#N)cc2)[C@H](C)O1)C(=O)c1cccc(O)c1C3=O` [Compound 6, HCl adduct of compound 5], the “1 h Incubation IC50” value [1, 5] was > 1 µg/mL and the “Long-term incubation IC50” value [1, 6] was 0.14 µg/mL.
With `CC[C@@]1(O)CCc2c(O)c3c(c(O)c2[C@H]1O[C@H]1C[C@H](N(C)C)[C@H](OC(=O)c2ccccc2)[C@H](C)O1)C(=O)c1cccc(O)c1C3=O` [Compound 22, 10-O-(4'-O-Benzoyl-α-L-rhodosaminyl)-γ-rhodomycinone] the IC50 [1, 7] was 0.48 µg/mL (≈ 0.76 µM), the IC50 [1, 8] was > 1 µg/mL and the LD50 [2, 9] was 1 to 10 mg/kg.
For `COc1cccc2c1C(=O)c1c(O)c3c(c(O)c1C2=O)C[C@@](O)(C(=O)CO)C[C@@H]3O[C@H]1C[C@H](N)[C@H](O)[C@H](C)O1` [Adriamycin, reference compound], the IC50 [1, 3] was 0.02 µg/mL (≈ 0.0368 µM), the IC50 [1, 4] was 0.04 µg/mL (≈ 0.0736 µM) and the “Degree of cross-resistance to adriamycin” value (L1210 leukemia cells) was 100.0%. For the same compound, the “Degree of resistance of the cell” value (L1210 leukemia cells) was 60-80 and the “resistance of the resistant cell line for doxorubicin” value (L1210 leukemia cells; resistant L1210 line, 4320 min) was 60-80 fold.
